Broadly, the pIC50 is the negative decadic logarithm of the IC50, by convention in mol/L. Read a low pIC50 as a high IC50.

Common to all, as to format: biochemical
One assay addresses PDE1C (Homo sapiens, UniProt Q14123). Kind of assay: In vitro HTRF PDE1 inhibition assay (PDE1C). The text has this:
(§1) An exemplary procedure for the in vitro Homogenous Time Resolved Fluorescence assay, which can be used to determine the inhibitory action of compounds of the invention toward PDE1 or its isoforms, follows. The HTRF PDE1 assay utilized the HTRF (Homogenous Time Resolved Fluorescence) technology, which is based on the competition between unlabeled cyclic nucleotide and cyclic nucleotide labeled with XL665 for the binding to cyclic nucleotide-specific antibody labeled with cryptate. The HTRF signal is thus inversely proportional to the concentration of cyclic nucleotide being measured. Since phosphodiesterases break down cyclic nucleotides the HTRF signal was used to determine PDE activity. The Cisbio cGMP HTRF assay kit (Cat no: 62GM2PEC) was utilized. Cyclic GMP was diluted to 200 nM in HTRF assay buffer (1 mM CaCl2, 10 mM MgCl2, 10 mM Tris-HCl, 0.1% BSA, pH 7.4). 10 μl of compound or DMSO was diluted in 200 nM cyclic GMP solution and added to wells of a 96 well white plate to give 100 nM cyclic GMP in 1% DMSO final concentration. PDE (1A3, 1B or IC) was diluted to 2× working concentration in HTRF assay buffer with 2 μg/ml calmodulin, and 10 μl was added to initiate the reaction. The plate was then incubated for 45 minutes at 37° C. d2-Labelled cyclic GMP and anti-cGMP cryptate were diluted in 50 mM phosphate buffer, 0.8 M KF, 1% Triton X100, 0.2% BSA, pH 7.0. Following incubation 10 μl d2-cGMP, then 10 μl anti cGMP cryptate were added to each well and the plate was incubated for 45 minutes at room temperature. The plate was then read on Perkin Elmer Victor at 2 different FRET readings ex/emm 340 nm/665 nm and 340 nm/615 nm. Compounds having an IC50 of <1 μM, are denoted as +++. Compounds having an IC50 of 1−10 μM, are denoted as ++. Compounds having an IC50 of 10-100 μM, are denoted as +.
On the technique in general: TR-FRET usually uses a lanthanide donor and a delayed reading to cut background.

The target of a further assay is PDE1B (Homo sapiens, UniProt Q01064). Kind of assay: In vitro HTRF PDE1 inhibition assay (PDE1B). In short, it runs like this:
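PDE1A3, 1B or 1C with calmodulin hydrolysed 100 nM cGMP in Tris buffer pH 7.4 (1 mM CaCl2, 10 mM MgCl2, 0.1% BSA, 1% DMSO) for 45 min at 37 °C. Remaining cGMP was measured by HTRF competition (d2-cGMP, anti-cGMP cryptate; 665/615 nm). IC50 is reported in bins: <1, 1-10 and 10-100 μM.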

The target in a further assay is PDE1A3 (Homo sapiens, UniProt P54750). Description: In vitro HTRF PDE1 inhibition assay (PDE1A3).
Excerpt: as §1

pIC50: −log10 of the molar value.

For the compound `CCN1c2nn3c(C4CCOCC4)ncc3c(=O)n2CC1c1ccc(OC)cc1` (racemic) [Example 66], the pIC50 was 5.00 to 6.00 on PDE1C (Table 24), greater than 6.00 against PDE1B (Table 22) and greater than 6.00 at PDE1A3 (Table 23).

Turning to `CC(C)c1ncc2c(=O)n3c(nn12)N(CC1CCOCC1)CC3` [Example 1, 8-Isopropyl-1-((tetrahydro-2H-pyran-4-yl)methyl)-2,3-dihydrodiimidazo[2,1-c:1′,5′-f][1,2,4]triazin-5(1H)-one], the pIC50 against PDE1C (Table 24) is 5.00 to 6.00; against PDE1B (Table 22), greater than 6.00; against PDE1A3 (Table 23) it was greater than 6.00.

Regarding `CC(C)c1ncc2c(=O)n3c(nn12)N(CCCc1ccccn1)CC3` [Example 11], the pIC50 at PDE1C (Table 24) was 5.00 to 6.00; against PDE1B (Table 22) it was greater than 6.00; against PDE1A3 (Table 23), greater than 6.00.

Take `CC(C)CN1CCCn2c1nn1c(C(C)C)ncc1c2=O` [Example 16]: the pIC50 on PDE1C (Table 24), against PDE1B (Table 22) and against PDE1A3 (Table 23) was greater than 6.00 each time.

For `CC(C)c1ncc2c(=O)n3c(nn12)N(CCC1CCOCC1)CCC3` [Example 24], the negative-log IC50 (pIC50) against PDE1C (Table 24), against PDE1B (Table 22) and against PDE1A3 (Table 23) was greater than 6.00 in each case.

On to `CC(C)c1ncc2c(=O)n3c(nn12)N(CC1CCOCC1)CCC3` [Example 25], for which the pIC50 against PDE1C (Table 24), at PDE1B (Table 22) and at PDE1A3 (Table 23) was greater than 6.00 each time.

For `CC(C)c1ncc2c(=O)n3c(nn12)N(Cc1ccc(C#N)cc1)CCC3` [Example 30], the pIC50 against PDE1C (Table 24), at PDE1B (Table 22) and on PDE1A3 (Table 23) was greater than 6.00 throughout.

In the case of `CC(C)(C)CCN1CCn2c1nn1c(C3CCOCC3)ncc1c2=O` [Example 55], the pIC50 against PDE1C (Table 24), on PDE1B (Table 22) and on PDE1A3 (Table 23) was greater than 6.00 in each case.

Take `O=c1c2cnc(C3CCOCC3)n2nc2n1CCN2CCCC(F)(F)F` [Example 56]: the pIC50 was 4.00 to 5.00 at PDE1C (Table 24), greater than 6.00 at PDE1B (Table 22) and 5.00 to 6.00 against PDE1A3 (Table 23).

Consider `O=c1c2cnc(C3CCOCC3)n2nc2n1CCCN2Cc1ccccc1` [Example 59], for which the pIC50 against PDE1C (Table 24) was 5.00 to 6.00; against PDE1B (Table 22), greater than 6.00; against PDE1A3 (Table 23), greater than 6.00.

As to `CC1CN(CC2CCOCC2)c2nn3c(C(C)C)ncc3c(=O)n2C1` (centres unmarked) [Example 64], the pIC50 against PDE1C (Table 24), on PDE1B (Table 22) and against PDE1A3 (Table 23) was greater than 6.00 in each case.

On to `CN1c2nn3c(C4CCOCC4)ncc3c(=O)n2CCC1c1ccc(Cl)cc1` (centres unmarked) [Example 69], for which the pIC50 against PDE1C (Table 24) is 5.00 to 6.00; against PDE1B (Table 22), greater than 6.00; against PDE1A3 (Table 23) it was greater than 6.00.

`CCN1c2nn3c(C4CCOCC4)ncc3c(=O)n2CC[C@@H]1c1ccc(Cl)cc1` [Example 70]: the pIC50 is 5.00 to 6.00 against PDE1C (Table 24), greater than 6.00 against PDE1B (Table 22) and greater than 6.00 against PDE1A3 (Table 23).

As to `CC(C)n1ncc2c(=O)n3c(nc21)N(Cc1ccc(-c2ccccn2)cc1)CC3` [Example 75], the pIC50 against PDE1C (Table 24), at PDE1B (Table 22) and against PDE1A3 (Table 23) was greater than 6.00 in each case.

Consider `CC(C)n1ncc2c(=O)n3c(nc21)N(CC1CCOCC1)CCC3` [Example 78], for which the pIC50 against PDE1C (Table 24) was 5.00 to 6.00; on PDE1B (Table 22) it was greater than 6.00; at PDE1A3 (Table 23) it was greater than 6.00.

As to `CC(C)n1ncc2c(=O)n3c(nc21)N(Cc1ccc(C#N)cc1)CCC3` [Example 79], the pIC50 against PDE1C (Table 24), against PDE1B (Table 22) and against PDE1A3 (Table 23) was greater than 6.00 throughout.

Regarding `CC(C)n1ncc2c(=O)n3c(nc21)N(C)C(c1ccc(Cl)cc1)CC3` (centres unmarked) [Example 81], the results for the pIC50 against PDE1C (Table 24), at PDE1B (Table 22) and on PDE1A3 (Table 23) were 5.00 to 6.00, greater than 6.00 and greater than 6.00, respectively.

On to `CC(C)c1ncc2c(=O)n3c(nn12)N(CCCCCCO)CCC3` [Example 106], for which the pIC50 against PDE1C (Table 24), against PDE1B (Table 22) and against PDE1A3 (Table 23) was greater than 6.00 in each case.

For the compound `CC(C)c1ncc2c(=O)n3c(nn12)N(CCCc1ccccn1)CCC3` [Example 120, 9-Isopropyl-1-[3-(2-pyridinyl)propyl]-1,2,3,4-tetrahydro-6H-imidazo[5,1-f]pyrimido[2,1-c][1,2,4]triazin-6-one], the pIC50 at PDE1C (Table 24), on PDE1B (Table 22) and at PDE1A3 (Table 23) was greater than 6.00 each time.

As for `O=c1c2cnc(C3CCCC3)n2nc2n1CCCC2` [Example 137], the pIC50 is 5.00 to 6.00 at PDE1C (Table 24), greater than 6.00 against PDE1B (Table 22) and 5.00 to 6.00 at PDE1A3 (Table 23).

Turning to `O=c1c2cnc(C3CCOCC3)n2nc2n1CCN2CC1CCCCC1` [Example 153], the pIC50 at PDE1C (Table 27), on PDE1B (Table 25) and on PDE1A3 (Table 26) was greater than 6.00 throughout.

For the compound `O=c1c2cnc(C3CCOCC3)n2nc2n1CCN2Cc1ccc(F)cc1` [Example 154], the pIC50 at PDE1C (Table 27), against PDE1B (Table 25) and against PDE1A3 (Table 26) was greater than 6.00 throughout.

Turning to `O=c1c2cnc(C3CCOCC3)n2nc2n1CCN2Cc1cccc(F)c1` [Example 155], the pIC50 at PDE1C (Table 27), at PDE1B (Table 25) and at PDE1A3 (Table 26) was greater than 6.00 throughout.

On to `O=c1c2cnc(C3CCOCC3)n2nc2n1CCN2Cc1ccccc1F` [Example 156], for which the pIC50 against PDE1C (Table 27), against PDE1B (Table 25) and against PDE1A3 (Table 26) was greater than 6.00 each time.

`O=c1c2cnc(C3CCOCC3)n2nc2n1CCN2CC1(C(F)(F)F)CC1` [Example 159]: the pIC50 against PDE1C (Table 27), on PDE1B (Table 25) and against PDE1A3 (Table 26) was greater than 6.00 throughout.

`O=c1c2cnc(C3CCOCC3)n2nc2n1CCN2CCC1(C(F)(F)F)CC1` [Example 160]: the pIC50 against PDE1C (Table 27), on PDE1B (Table 25) and against PDE1A3 (Table 26) was greater than 6.00 each time.

Take `O=c1c2cnc(C3CCOCC3)n2nc2n1CCCN2CCC1(C(F)(F)F)CC1` [Example 188]: the pIC50 at PDE1C (Table 27) and at PDE1A3 (Table 26) was greater than 6.00 in each case.

In turn, `CC(C)CN1CCCn2c1nc1c(cnn1C1CCOCC1)c2=O` [Example 226] gave a negative logarithm of the IC50 (pIC50) at PDE1B (Table 25) greater than 6.00.

Take `O=c1c2cnn(C3CCOCC3)c2nc2n1CCCN2CC1CC1(F)F` (centres unmarked) [Example 227]: the pIC50 at PDE1B (Table 25) is greater than 6.00.

The compound `CC(C)(C)CN1CCCn2c1nc1c(cnn1C1CCOCC1)c2=O` [Example 228] gave a pIC50 against PDE1B (Table 25) greater than 6.00.

On to `CC(C)(C)CCN1CCCn2c1nc1c(cnn1C1CCOCC1)c2=O` [Example 229], for which the pIC50 at PDE1B (Table 25) was greater than 6.00.

In turn, `CO[C@@H](C)c1ncc2c(=O)n3c(nn12)N(CCCC(F)(F)F)CC3` [Example 230] gave a pIC50 against PDE1B (Table 25) greater than 6.00.

Take `CO[C@H](C)c1ncc2c(=O)n3c(nn12)N(CCCC(F)(F)F)CC3` [Example 231]: the pIC50 against PDE1B (Table 25) is 5.00 to 6.00.

`Cc1nc(C2CCOCC2)n2nc3n(c(=O)c12)CCN3CCC(C)C` [Example 234, 6-Methyl-1-(3-methylbutyl)-8-(tetrahydro-2H-pyran-4-yl)-2,3-dihydro-1H,5H-diimidazo[2,1-c:5′,1′-f][1,2,4]triazin-5-one] showed a pIC50 on PDE1B (Table 25) of 5.00 to 6.00.

`CC(C)CCN1CCn2c1nn1c(C3CCOCC3)nc(C#N)c1c2=O` [Example 235, 1-(3-Methylbutyl)-5-oxo-8-(tetrahydro-2H-pyran-4-yl)-2,3-dihydro-1H,5H-diimidazo[2,1-c 5′,1′-f][1,2,4]triazine-6-carbonitrile] gave a pIC50 against PDE1B (Table 25) of 5.00 to 6.00.

In turn, `CC(C)CCN1CCn2c1nn1c(C3CCOCC3)nc(Cl)c1c2=O` [Example 236, 6-Chloro-1-(3-methylbutyl)-8-(tetrahydro-2H-pyran-4-yl)-2,3-dihydro-1H,5H-diimidazo[2,1-c:5′,1′-f][1,2,4]triazin-5-one] showed a pIC50 at PDE1B (Table 25) greater than 6.00.

For the origin of these results see patent US20170273985A1, “TRICYCLIC DERIVATIVE” (Sunovion Pharmaceuticals Inc., priority 2014, published 2017).
